Reference: patent US20230027026A1, “FUSED PYRIMIDINE COMPOUNDS, COMPOSITIONS AND MEDICINAL APPLICATIONS THEREOF” (JUBILANT BIOSYS LIMITED, priority 2019, published 2023)

Tests used:
EGFR (T790M/L858R) = target: T1, EGFR (T790M/L858R) (Homo sapiens, UniProt P00533, L858R/T790M); assay: EGFR L858R/T790M enzyme inhibition assay (HTRF); format: biochemical; conditions: 5 μM ATP, 60 min, read-out: EGFR_L858R T790M_IC50_nM
T1 construct: GST; purchased Proqinase
Procedure: Example 2: EGFR L858R & Del19/T790M Assay Protocol (to Find the IC50 for the Compounds Using HTRF Method)
Reagents for Enzyme Assay:
• 1. Enzyme Assay Buffer: 60 mM HEPES (pH 7.4), 50 mM NaCl, 20 mM MgCl2, 5 mM MnCl2, filtered using 0.2 μm pore size, stored at 4° C. • Supplements (added fresh to the enzyme buffer): 1M DTT stock was made, 5% BSA stock and 0.1M Na3OV4 stored at 4° C. Enzyme assay buffer 50 mL, 1 M DTT 100 μL, 5% BSA 500 μL, 0.1 M Na3OV4 50 μL. • 2. GST-hEGFR (L858R), active: EGFR (T790M/L858R), active (Proqinase), 3.6 μM stock; 2.5 nM in final assay. • 3. Gastrin Precusor-Biotinylated: Gastrin precursor (Tyr87) biotinylated peptide, EEAY*GWM, Cell Signaling Tech 1310, Lot-7, Want final 0.5 μM in assay. • 4. ATP: 10 mM stock in 100 μL Enzyme assay buffer pH 7.4 prepared freshly, want 5 μM in final assay. • 5. Test compounds: Powders were dissolved in 100% DMSO and made up to a final stock concentration of 10 mM (volume in μL to add for 10 mM=mg powder X 10^5/MW). Final compound concentration in the assay plate started at 10 μM.
• 1. HTRF buffer: 50 mM Tris —HCl, pH-7.5, 100 mM NaCl, 0.1% BSA, 0.05% Tween20, 0.5 mM EDTA, filtered using 0.2 μm pore size, stored at 4° C. • Phycolink® Streptavidin-Allophycocyanin (SA-APC) Prozyme, Cat. #PJ25S, Lot #896 085, 2.06 mg/mL, APC concentration is 11.6 μM, streptavidin concentration is 15.5 μM. Want 12 nM final in assay (based on streptavidin concentration). • 2. (Europium) Eu-W1024 Anti-phosphotyrosine (PT-66) Antibody: Perkin Elmer (Product Number: AD0068), monoclonal IgG1 that recognizes phosphotyrosine peptide 100 μg/ml stock. Want 0.1 nM final in assay.
• 1. The compound dilution was made by TECAN as per the above scheme. • 2. 16 μL of diluted compound was added to the assay plate by using TECAN. • 3. 10 μL of enzyme mix was added to each well except mins. • 4. 20 μL of substrate and ATP mix were added into each well of the assay plate, manually. • 5. The plate was incubated on a laboratory shaker at room temperature for 60 min. • 6. Meanwhile, the HTRF mix was prepared and 75 μL was added to the HTRF plate. • 7. When the incubation was over, 10 μL of the reaction mixture was transferred to the HTRF assay plate and incubated on a laboratory shaker for 30 min at room temperature. • 8. The reading was taken in Pherastar (ext 337 nm, Em 665 & 620 nm). • 9. The results were analyzed using Graphpad prism after calculation of the z factor, signal window and % inhibition to get the IC50.

[1] = tested on: H1975 cells (L858R_T790M mutant); assay: H1975 proliferation assay; format: cell-based; conditions: Homo sapiens, NCI-H1975; read-out: Proliferation_Assay H1975 cells-EC50_nM L858R_T790M_mutant
A431 cells = assay: Cellular proliferation (Alamar Blue) assay, A431; format: cell-based; conditions: Homo sapiens, A-431; A431 cells, 72 hr, Alamar Blue; read-out: A431 IC50
Method in brief: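 Following a 16–18 h pre-incubation, cells received compound or DMSO for 72 h at 37 °C across a 10–0.0005 μM final range. Proliferation was then scored by Alamar Blue fluorescence (540 nm excitation, 590 nm emission) after 3 h.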

[2] = target: EGFR (A767_dupASV) expressing Ba/F3 stable cell line (Homo sapiens, UniProt P00533, DUP767-769, cells depend on it); assay: Cellular proliferation (Alamar Blue) assay, EGFR A767_dupASV Ba/F3; format: cell-based; conditions: EGFR A767_dupASV Ba/F3, 72 hr, read-out: A767 IC50
EGFR (A767_dupASV) expressing Ba/F3 stable cell line, sequence (P00533 with tags, fused parts or gaps DUP767-769): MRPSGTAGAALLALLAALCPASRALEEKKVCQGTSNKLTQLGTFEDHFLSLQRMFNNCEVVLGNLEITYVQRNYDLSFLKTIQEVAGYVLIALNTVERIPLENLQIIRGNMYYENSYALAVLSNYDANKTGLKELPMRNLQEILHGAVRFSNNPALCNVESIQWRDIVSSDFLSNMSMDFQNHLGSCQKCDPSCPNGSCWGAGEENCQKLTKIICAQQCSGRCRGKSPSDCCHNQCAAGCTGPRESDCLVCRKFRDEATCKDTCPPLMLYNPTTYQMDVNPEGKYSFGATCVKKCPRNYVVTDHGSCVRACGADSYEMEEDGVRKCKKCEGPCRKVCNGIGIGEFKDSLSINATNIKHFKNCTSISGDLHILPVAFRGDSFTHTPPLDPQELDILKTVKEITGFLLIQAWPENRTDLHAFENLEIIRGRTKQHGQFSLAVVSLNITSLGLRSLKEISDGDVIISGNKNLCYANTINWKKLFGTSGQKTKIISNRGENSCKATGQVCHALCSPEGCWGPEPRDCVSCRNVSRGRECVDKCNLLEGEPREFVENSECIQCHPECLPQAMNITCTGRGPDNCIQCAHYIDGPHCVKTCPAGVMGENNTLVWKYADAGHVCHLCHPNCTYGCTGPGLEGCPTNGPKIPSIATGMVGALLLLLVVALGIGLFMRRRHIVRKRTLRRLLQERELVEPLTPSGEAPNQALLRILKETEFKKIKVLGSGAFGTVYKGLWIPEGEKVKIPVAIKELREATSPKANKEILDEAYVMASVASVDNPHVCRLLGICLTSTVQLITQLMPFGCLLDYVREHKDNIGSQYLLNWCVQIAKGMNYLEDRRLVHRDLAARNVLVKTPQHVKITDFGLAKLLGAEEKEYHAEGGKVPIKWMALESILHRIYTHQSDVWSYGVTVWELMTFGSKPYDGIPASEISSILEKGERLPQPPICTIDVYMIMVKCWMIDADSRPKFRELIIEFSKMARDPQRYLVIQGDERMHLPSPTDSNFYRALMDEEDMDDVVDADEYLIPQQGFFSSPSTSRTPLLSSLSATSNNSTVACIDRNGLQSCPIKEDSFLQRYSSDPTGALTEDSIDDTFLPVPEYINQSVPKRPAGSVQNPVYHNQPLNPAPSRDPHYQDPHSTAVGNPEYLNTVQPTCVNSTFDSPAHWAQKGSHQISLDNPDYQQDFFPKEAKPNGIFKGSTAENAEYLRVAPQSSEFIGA
Method in brief: (§1)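 Plate cells (Ba/F3: 15,000/well, RPMI/10% FBS), 16–18 h, 37 °C. Add cpd, 3-fold dilutions, 10–0.0005 μM final, DMSO ctrl; 72 h. Alamar Blue 3 h; read Ex540/Em590.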

[3] = target: EGFR(D770_N771insSVD) expressing Ba/F3 stable cell line (Homo sapiens, UniProt P00533, DUP768-770, cells depend on it); assay: Cellular proliferation (Alamar Blue) assay, EGFR D770_N771insSVD Ba/F3; format: cell-based; conditions: EGFR D770_N771insSVD Ba/F3, 72 hr, read-out: D770 IC50
EGFR(D770_N771insSVD) expressing Ba/F3 stable cell line, sequence (P00533 with tags, fused parts or gaps DUP768-770): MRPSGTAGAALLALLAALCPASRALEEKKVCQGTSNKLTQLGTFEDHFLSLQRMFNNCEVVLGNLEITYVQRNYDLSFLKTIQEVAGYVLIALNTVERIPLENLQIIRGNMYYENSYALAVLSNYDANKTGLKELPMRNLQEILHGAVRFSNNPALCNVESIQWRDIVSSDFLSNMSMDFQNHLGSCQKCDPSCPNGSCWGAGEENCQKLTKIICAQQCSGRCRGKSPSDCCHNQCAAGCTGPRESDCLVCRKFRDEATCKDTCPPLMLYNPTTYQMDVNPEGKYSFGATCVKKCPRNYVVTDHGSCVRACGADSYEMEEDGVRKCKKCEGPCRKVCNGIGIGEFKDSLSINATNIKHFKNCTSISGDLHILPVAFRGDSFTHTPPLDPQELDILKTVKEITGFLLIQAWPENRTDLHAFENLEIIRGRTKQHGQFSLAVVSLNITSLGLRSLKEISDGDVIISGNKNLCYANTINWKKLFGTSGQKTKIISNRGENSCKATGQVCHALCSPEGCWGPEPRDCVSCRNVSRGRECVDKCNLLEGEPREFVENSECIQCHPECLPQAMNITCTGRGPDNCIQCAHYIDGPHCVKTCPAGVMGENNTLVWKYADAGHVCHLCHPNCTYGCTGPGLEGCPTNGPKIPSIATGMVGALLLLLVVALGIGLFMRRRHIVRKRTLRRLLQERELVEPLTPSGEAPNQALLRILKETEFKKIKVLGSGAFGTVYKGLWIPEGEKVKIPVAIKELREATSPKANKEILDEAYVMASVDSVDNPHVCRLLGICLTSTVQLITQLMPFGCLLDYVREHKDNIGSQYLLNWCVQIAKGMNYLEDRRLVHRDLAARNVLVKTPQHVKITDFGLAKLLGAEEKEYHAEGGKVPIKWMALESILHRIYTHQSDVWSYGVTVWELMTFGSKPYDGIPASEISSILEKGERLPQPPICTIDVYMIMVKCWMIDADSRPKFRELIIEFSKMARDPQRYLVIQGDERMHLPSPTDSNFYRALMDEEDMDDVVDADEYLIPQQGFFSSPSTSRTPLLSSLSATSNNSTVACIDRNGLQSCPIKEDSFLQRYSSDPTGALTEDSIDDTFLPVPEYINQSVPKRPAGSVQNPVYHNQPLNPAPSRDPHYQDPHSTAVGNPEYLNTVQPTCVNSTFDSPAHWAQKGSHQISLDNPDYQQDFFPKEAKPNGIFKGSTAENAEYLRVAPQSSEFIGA
Method in brief: as §1

T1 sequence (P00533 25-1210 T790M/L858R): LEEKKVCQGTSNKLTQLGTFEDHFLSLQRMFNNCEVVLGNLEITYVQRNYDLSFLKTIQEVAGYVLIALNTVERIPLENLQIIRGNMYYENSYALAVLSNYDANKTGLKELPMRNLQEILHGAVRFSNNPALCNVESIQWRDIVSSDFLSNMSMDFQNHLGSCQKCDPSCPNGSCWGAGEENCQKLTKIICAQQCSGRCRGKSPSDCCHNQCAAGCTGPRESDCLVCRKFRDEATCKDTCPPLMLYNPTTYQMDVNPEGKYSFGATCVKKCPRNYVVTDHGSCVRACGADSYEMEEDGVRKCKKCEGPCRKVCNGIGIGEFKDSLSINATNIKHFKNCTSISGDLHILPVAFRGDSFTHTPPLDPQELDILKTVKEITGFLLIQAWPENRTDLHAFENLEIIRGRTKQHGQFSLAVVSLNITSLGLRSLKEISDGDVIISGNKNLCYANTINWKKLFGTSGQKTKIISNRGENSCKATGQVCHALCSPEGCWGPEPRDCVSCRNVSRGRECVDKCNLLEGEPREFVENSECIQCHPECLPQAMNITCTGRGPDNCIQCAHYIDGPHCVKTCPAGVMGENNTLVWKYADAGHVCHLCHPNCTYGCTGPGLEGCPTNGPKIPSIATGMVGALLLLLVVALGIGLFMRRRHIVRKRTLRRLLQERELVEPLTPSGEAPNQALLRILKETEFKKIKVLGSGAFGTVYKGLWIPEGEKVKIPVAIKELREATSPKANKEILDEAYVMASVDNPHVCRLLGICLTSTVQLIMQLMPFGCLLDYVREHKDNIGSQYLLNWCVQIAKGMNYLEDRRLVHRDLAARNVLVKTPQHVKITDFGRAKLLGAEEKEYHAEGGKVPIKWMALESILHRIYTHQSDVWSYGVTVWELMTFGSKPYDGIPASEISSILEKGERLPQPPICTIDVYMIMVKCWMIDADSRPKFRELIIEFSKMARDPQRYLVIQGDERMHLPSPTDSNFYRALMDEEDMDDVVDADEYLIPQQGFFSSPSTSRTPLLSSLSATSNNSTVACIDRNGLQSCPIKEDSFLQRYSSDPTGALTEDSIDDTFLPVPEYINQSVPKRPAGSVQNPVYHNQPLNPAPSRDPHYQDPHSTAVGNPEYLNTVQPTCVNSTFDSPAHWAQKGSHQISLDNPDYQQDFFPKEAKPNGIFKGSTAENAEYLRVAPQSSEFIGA

| IC50 (EGFR (T790M/L858R)) | EC50 [1] | IC50 (A431 cells) | GI50 [2] | GI50 [3] | SMILES |
| --- | --- | --- | --- | --- | --- |
| 0.4 nM | 4200 nM | 5380 nM | 1350 nM | 8720 nM | Cn1cc(Nc2ncc3c(n2)N(c2cccc(NC(=O)/C=C/Cl)c2)C(=O)N(Cc2ccccc2)C3)cn1 [Compound 50, (E)-N-(3-(3-benzyl-7-((1-methyl-1H-pyrazol-4-yl)amino)-2-oxo-3,4-dihydropyrimido[4,5-d]pyrimidin-1(2H)-yl)phenyl)-3-chloroacrylamide] |
| 13 nM | 40.9 nM | 676 nM | 184 nM | 131 nM | C=CC(=O)Nc1cccc(N2C(=O)N(Cc3ccc(F)cc3)Cc3cnc(Nc4cnn(C)c4)nc32)c1 [Compound 3, N-(3-(3-(4-fluorobenzyl)-7-((1-methyl-1H-pyrazol-4-yl)amino)-2-oxo-3,4-dihydropyrimido[4,5-d]pyrimidin-1(2H)-yl)phenyl)acrylamide] |
| 2.4 nM | 4.9 nM | 78 nM | 57 nM | 40 nM | C=CC(=O)Nc1cccc(N2C(=O)N(Cc3ccccc3)Cc3cnc(Nc4cnn(C)c4C)nc32)c1 [Compound 4, N-(3-(3-benzyl-7-((1,5-dimethyl-1H-pyrazol-4-yl)amino)-2-oxo-3,4-dihydropyrimido[4,5-d]pyrimidin-1(2H)-yl)phenyl)acrylamide] |
| 5 nM | 222 nM | 3080 nM | 3330 nM | 3690 nM | CN(C)C/C=C/C(=O)Nc1cccc(N2C(=O)N(Cc3ccccc3)Cc3cnc(Nc4cn(C)nn4)nc32)c1 [Compound 26, (E)-N-(3-(3-benzyl-7-((1-methyl-1H-1,2,3-triazol-4-yl)amino)-2-oxo-3,4-dihydropyrimido[4,5-d]pyrimidin-1(2H)-yl)phenyl)-4-(dimethylamino)but-2-enamide] |
| 2 nM | 19.7 nM | 615 nM | 414 nM | 893 nM | CN(C)C/C=C/C(=O)Nc1cccc(N2C(=O)N(Cc3ccc(F)cc3)Cc3cnc(Nc4cnn(C)c4)nc32)c1 [Compound 2, (E)-4-(dimethylamino)-N-(3-(3-(4-fluorobenzyl)-7-((1-methyl-1H-pyrazol-4-yl)amino)-2-oxo-3,4-dihydropyrimido[4,5-d]pyrimidin-1(2H)-yl)phenyl)but-2-enamide] |
| 2.5 nM | 34 nM | 332 nM | 421 nM | 1100 nM | CN(C)C/C=C/C(=O)Nc1cccc(N2C(=O)N(c3ccc(F)cc3)Cc3cnc(Nc4cnn(C)c4)nc32)c1 [Compound 18, (E)-4-(dimethylamino)-N-(3-(3-(4-fluorophenyl)-7-((1-methyl-1H-pyrazol-4-yl)amino)-2-oxo-3,4-dihydropyrimido[4,5-d]pyrimidin-1(2H)-yl)phenyl)but-2-enamide] |
| 98 nM | 323 nM | ≥ 10000 nM | 1700 nM | 1870 nM | C=CC(=O)NC1CCCC(N2C(=O)N(Cc3ccccc3)Cc3cnc(Nc4cn(C)nc4Cl)nc32)C1 (stereo not drawn) [Compound 40, N-(3-(3-benzyl-7-((3-chloro-1-methyl-1H-pyrazol-4-yl)amino)-2-oxo-3,4-dihydropyrimido[4,5-d]pyrimidin-1(2H)-yl)cyclohexyl)acrylamide] |
| 281 nM | 299 nM | 1970 nM | 3320 nM | 3480 nM | CN(C)C/C=C/C(=O)NC1CCCC(N2C(=O)N(Cc3ccccc3)Cc3cnc(Nc4cnn(C)c4)nc32)C1 (stereo not drawn) [Compound 31, (E)-N-(3-(3-benzyl-7-((1-methyl-1H-pyrazol-4-yl)amino)-2-oxo-3,4-dihydropyrimido[4,5-d]pyrimidin-1(2H)-yl)cyclohexyl)-4-(dimethylamino)but-2-enamide] |
| 3 nM | 29 nM | 83 nM | 320 nM | 69 nM | C=CC(=O)Nc1cccc(N2C(=O)N(Cc3ccccc3)Cc3cnc(Nc4nc(C)cs4)nc32)c1 [Compound 25, N-(3-(3-benzyl-7-((4-methylthiazol-2-yl)amino)-2-oxo-3,4-dihydropyrimido[4,5-d]pyrimidin-1(2H)-yl)phenyl)acrylamide] |
